According to the supplement of paper PMC10307832:

How the values were obtained:
Test in all cases: relative viability (nuclei count vs DMSO), 5 days (fraction); higher = more cells survive
[1] = compound: CC1=CC=C(C=C1)C(=O)CN2C3=C(CCCC3)SC2=N [Pifithrin_alpha] + C[C@@H](Oc1cc(-c2cnn(C3CCNCC3)c2)cnc1N)c1c(Cl)ccc(F)c1Cl [Crizotinib] (partner 1 µM)
Procedure, shortened: (§1)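 Values are medians from duplicate plates. Each reflects relative viability, defined as the nuclei count of treated wells over that of vehicle wells. Lung cancer cell lines in 1536-well plates were pin-tool dosed one day after seeding with one drug alone or with a fixed anchor-drug dose plus five library-drug doses (not always all listed) in √10 steps, then fixed, stained and imaged at 4× after 5 days.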

Bemcentinib + Vorinostat = compound: Nc1nc(Nc2ccc3c(c2)CC[C@@H](N2CCCC2)CC3)nn1-c1cc2c(nn1)-c1ccccc1CCC2 [Bemcentinib] + O=C(CCCCCCC(=O)Nc1ccccc1)NO [Vorinostat] (partner 1 µM)
Procedure, shortened: as §1

Axitinib + Palbociclib = compound: CNC(=O)c1ccccc1Sc1ccc2c(/C=C/c3ccccn3)n[nH]c2c1 [Axitinib] + CC(=O)c1c(C)c2cnc(Nc3ccc(N4CCNCC4)cn3)nc2n(C2CCCC2)c1=O [Palbociclib] (partner 0.5 µM)
Procedure, shortened: as §1

| Cell Line | relative viability ([1]; first compound 1 µM) | relative viability ([1]; first compound 3.162 µM) | relative viability ([1]; first compound 10 µM) | relative viability ([1]; first compound 31.62 µM) | relative viability ([1]; first compound 100 µM) | relative viability (Bemcentinib + Vorinostat; first compound 0.04 µM) | relative viability (Bemcentinib + Vorinostat; first compound 0.1265 µM) | relative viability (Bemcentinib + Vorinostat; first compound 0.4 µM) | relative viability (Bemcentinib + Vorinostat; first compound 1.265 µM) | relative viability (Bemcentinib + Vorinostat; first compound 4 µM) | relative viability (Axitinib + Palbociclib; first compound 0.005 µM) | relative viability (Axitinib + Palbociclib; first compound 0.05 µM) | relative viability (Axitinib + Palbociclib; first compound 0.1581 µM) | relative viability (Axitinib + Palbociclib; first compound 0.5 µM) | relative viability (Axitinib + Palbociclib; first compound 0.01581 µM) |
| --- | --- | --- | --- | --- | --- | --- | --- | --- | --- | --- | --- | --- | --- | --- | --- |
| PC-3 [JPC-3] | 0.98 | 0.998 | 0.884 | 0.814 | 0.849 | 0.898 | 0.735 | 0.784 | 0.725 | 0.752 | 0.558 | 0.556 | 0.603 | 0.61 | – |
| HCC-366 | 0.812 | 0.517 | 0.418 | – | 0.198 | 0.32 | 0.43 | 0.441 | 0.303 | 0.433 | 0.438 | 0.399 | 0.36 | 0.524 | 0.378 |
| NCI-H2405 | 0.821 | 0.815 | 0.796 | 0.741 | 0.822 | 0.991 | 1.07 | 1.1 | 1.08 | 1.06 | 0.505 | 0.542 | 0.517 | 0.537 | 0.524 |
| LU99A | 0.565 | 0.633 | 0.496 | – | 0.699 | 0.472 | 0.482 | 0.468 | 0.477 | 0.436 | 0.408 | 0.394 | 0.438 | 0.417 | 0.416 |
| LCLC-97TM1 | – | 0.45 | 0.277 | – | 0.306 | 0.727 | 0.703 | 0.702 | 0.633 | 0.829 | 0.27 | 0.199 | 0.201 | 0.239 | 0.263 |
| A-427 | 1 | 0.85 | 0.857 | 0.574 | 0.932 | 0.841 | 0.896 | 0.867 | 0.836 | 0.82 | 0.491 | 0.564 | 0.567 | 0.543 | 0.511 |
| EMC-BAC-2 | 0.733 | 0.745 | 0.627 | 0.416 | 0.645 | 0.38 | 0.413 | 0.537 | 0.358 | 0.4 | 0.522 | 0.49 | 0.508 | 0.533 | 0.562 |
| NCI-H2228 | 0.3 | 0.424 | 0.432 | 0.263 | 0.376 | 0.574 | 0.878 | 0.763 | 0.749 | 0.756 | 0.926 | 0.615 | 0.614 | 0.882 | 0.664 |
| IA-LM | 0.652 | 0.622 | 0.705 | 0.463 | 0.433 | 0.968 | 1.38 | 0.984 | 0.965 | 0.866 | – | – | – | – | – |
| NCI-H838 | 0.829 | 0.746 | 0.667 | 0.496 | 0.625 | 0.746 | 0.799 | 0.718 | 0.82 | 0.719 | 0.246 | 0.233 | 0.226 | 0.23 | 0.229 |
| COR-L 105 | 0.678 | 0.644 | 0.712 | 0.469 | 0.75 | 0.751 | 0.985 | 0.918 | 0.933 | 0.826 | 0.456 | 0.38 | 0.438 | 0.37 | 0.434 |
| NCI-H358 | 0.616 | 0.589 | 0.516 | 0.428 | 0.625 | 0.665 | 0.745 | 0.701 | 0.806 | 0.839 | 0.17 | 0.143 | 0.129 | 0.13 | 0.159 |
| SK-MES-1 | 0.934 | 0.933 | 0.976 | 0.683 | 0.765 | 1.1 | 1.38 | 1.17 | 1.23 | 1.24 | 0.309 | 0.347 | 0.344 | 0.353 | 0.332 |
| LCLC-103H | 1.06 | 1.04 | 1.01 | 0.897 | 1.07 | 0.774 | 0.826 | 0.8 | 0.783 | 0.883 | 0.475 | 0.493 | 0.474 | 0.451 | 0.464 |
| HARA | 1.26 | 1.11 | 1.19 | 0.791 | 1.24 | 0.402 | 0.658 | 0.573 | 0.645 | 0.543 | 0.241 | 0.216 | 0.221 | 0.247 | 0.334 |
| ABC-1 | 1.09 | 0.999 | 1.22 | 0.817 | 0.597 | 1.01 | 1.1 | 1.11 | 0.856 | 0.892 | 0.756 | 0.632 | 0.626 | 0.854 | – |
| NCI-H727 | 0.789 | 0.78 | 0.823 | 0.556 | 0.673 | 1.02 | 1.14 | 1.18 | 0.858 | 1.2 | 0.597 | 0.596 | 0.673 | 0.613 | 0.66 |
| NCI-H2009 | 0.963 | 1.03 | 0.955 | 0.679 | 0.857 | 0.671 | 0.783 | 0.71 | 0.723 | 0.722 | 0.257 | 0.203 | 0.233 | 0.255 | 0.295 |
